These results are taken from patent publication US20090104637A1, “Method and Apparatus for Assaying Blood Clotting” (priority 2006, published 2009).

For data set [1] the following is noted: cited from earlier work.
Data set [2] has as its system normal pooled plasma and donor plasma. The data set can be described thus: On-chip APTT assay with argatroban titration, plug-based microfluidic device, plasma, 37° C. Type of data set: biochemical, human.
Another data set has as its system donor's whole blood. The data set can be described thus: On-chip APTT assay with argatroban titration, plug-based microfluidic device, whole blood, 23° C. The data set is classed as biochemical, human. The following applies: APTT with argatroban / baseline APTT.
For the next data set, the target named is T1, human α-thrombin (Homo sapiens, UniProt P00734).
T1 construct: A fluorogenic substrate for human α-thrombin
The following applies: 37° C., 50 mM Tris-HCl, pH 8.0, 0.15 M NaCl, 1 mM CaCl2, 1 mg/mL BSA; cited from earlier work.

The next data set relates to human blood plasma. The data set can be described thus: Velocity of clot propagation in a microfluidic channel in the absence of flow. The data set is classed as biochemical. The source says:
To test the prediction that clots propagate as a reactive front with a constant velocity, the inventors used a microfluidic system to regulate and observe clotting in human blood plasma. This system was fabricated in poly(dimethylsiloxane) (PDMS).
FIG. 22 illustrates measurement of the propagation of a blood clot through a microfluidic channel in the absence of flow. Clots propagate with a similar velocity, Fv, in the absence and presence of a membrane-bound inhibitor of clotting, thrombomodulin (TM), on the channel wall. FIG. 22a is a schematic drawing of the procedure for initiating and monitoring clot propagation in a microfluidic device. […] FIG. 22b is a fluorescence microphotograph of a microfluidic device showing that lipids with reconstituted TF (lipid-TF) can be localized to a specific section of a channel in a background of inert lipids. FIG. 22c is a time-lapse fluorescence microphotographs showing position of the clot at 0, 40, and 80 min after plasma was introduced into the channel.
Clot initiation and propagation were spatially separated by patterning the walls of the same channel with different phospholipids (FIG. 22a). […] Clotting was monitored using bright-field microscopy to detect fibrin formation and fluorescence microscopy to detect thrombin-induced cleavage of a peptide-modified coumarin dye. […]

In data set [3] the test system is activated protein C (aPC). The data set can be described thus: Activated protein C (aPC) production from Egg PC lipid coated surfaces with reconstituted thrombomodulin. The data set is classed as biochemical. The source says:
It has been proposed that clot propagation is regulated by thrombomodulin (TM), an inhibitor of clotting located at on the walls of vessels near sites of vascular damage. It has been shown that clot propagation is reduced when TM is homogenously mixed into blood plasma. To mimic the localization of TM on vessel walls, TM was incorporated at the channel walls and tested if this TM was sufficient to stop clot propagation. The inventors incorporated TM into the inert phospholipid surface by forming inert lipid vesicles with reconstituted TM (lipid:TM) and by using the procedure described above to coat the channel walls.
Control experiments verified TM activity on the channel walls was on the same order of magnitude as previously measured for a monolayer of endothelial cells. Measured TM activities are shown in Table 2, which illustrates the quantification of activated protein C (aPC) production from Egg PC lipid coated surfaces with reconstituted thrombomodulin (TM). Corresponding velocities of clot propagation are shown.

Data set [4] concerns normal pooled plasma (NPP). The data set can be described thus: Initiation of clotting on patches of TF-reconstituted bilayers (timescale of reaction, threshold patch size). The data set is classed as biochemical, human. The procedure: Reconstituting tissue factor (TF) to obtain clot-promoting vesicles. TF was reconstituted into mixed vesicles of DLPC/PS/Texas Reds DHPE (79.5/20/0.5 mole percents) at a concentration of 1.25 mg/mL in 1×HEPES-buffered saline/Ca^2+ buffer. For experiments in FIGS. 17, 18, and 19 the TF concentration in the vesicle solution was 0.40 nM (TF:lipid ratio of 2.5×10^−7). Assuming that all the TF was incorporated into the vesicles, the calculated surface concentration would be 0.08 fmol/cm^2. For experiments in Table 1, a final concentration of 0.16 nM of TF (TF:lipid ratio of 1×10^−7) was used. After addition of TF to the vesicle solution, the solution was incubated at 37° C. for 30 min and then stored at 12° C. The vesicles were used within 18 hrs.
Generating patches by backfilling clot-promoting lipids into the photo-removed regions of bilayer. To generate the clot-promoting patches, the patterned bilayers were backfilled with 30 μL of the TF-reconstituted vesicle solution (1.25 mg/mL vesicles in PBS buffer) and allowed to incubate for 4 min at room temperature. Phospholipid bilayers containing active TF have been prepared previously (Contino et al., 1994, Biophys. J. 67: 1113-1116 (1994)). Excess vesicles were removed by vigorous rinsing with a solution of NaCl (150 mM). Patterned bilayers were used immediately in clotting experiments.
Recalcifying the blood plasma samples and adding the thrombi-sensitive dye. All blood plasma samples were recalcified by adding a solution of CaCl2 containing the thrombin-sensitive fluorescent dye, Boc-Asp(OBzl)-Pro-Arg-MCA, (CaCl2, 40 mM; NaCl, 90 mM; and Boc-Asp(OBzl)-Pro-Arg-MCA, 0.4 mM). At the start of each experiment, the plasma and the solution containing CaCl2 were mixed 3:1 by volume. Clotting was detected by the appearance of fibrin using bright field microscopy, and by the appearance of fluorescence signal generated when 4-Methyl-Coumaryl-7-Amine (MCA) was cleaved from Boc-Asp(OBzl)-Pro-Arg-MCA by thrombin.
Inhibiting the factor XII pathway with corn trypsin inhibitor. For experiments measuring clot times for the TF pathway (all experiments using phospholipid bilayers and reconstituted TF), the factor XII (contact) pathway was inhibited with corn trypsin inhibitor (CTI). […]
The threshold patch size of donor platelet rich plasma and normal pooled plasma was measured at 24° C. and 37° C. Clot times were measured on patches presenting clotting stimuli (TF-reconstituted bilayers) in arrays containing patches of different sizes (Table 1). In a single experiment, the clot time on seven different patch sizes was measured. […] Clot time vs. patch size for platelet rich plasma (PRP) from donors was measured.

Marks after values point to notes of the source that are not given here.

What is called pKa is the pH at which an ionisable group is half protonated. As usually defined, the Km is the substrate concentration at which the rate is half of its maximum. In general, kcat refers to the number of substrate molecules converted per active site and unit of time at saturation.

Turning to `O=Nc1ccccc1C(=O)O` [2-nitrosobenzoic acid], in data set [1], the pKa was less than 4.

With `CC1CNc2c(cccc2S(=O)(=O)N[C@@H](CCCNC(=N)N)C(=O)N2CC[C@@H](C)C[C@@H]2C(=O)O)C1` (some centres unmarked) [argatroban], the APTT ratio result in data set [2] (argatroban 0.5 μg/mL) was “about 2.1”; in data set [2] (argatroban 1.0 μg/mL), 2.7; in the data set with donor's whole blood (argatroban 0.5 μg/mL), 2.3; in the data set on donor's whole blood (argatroban 1.0 μg/mL) it was 2.8.

Turning to “t-butyloxycarbonyl-β-benzyl-L-aspartyl-L-prolyl-Larginine-4-methyl-coumaryl-7-amide”, at human α-thrombin, the Km was 11 µM and the kcat was 160 s⁻¹.

Consider thrombomodulin [TM], for which the “Front Velocity” value in the data set on human blood plasma (Glass, 37 ° C., TM:Egg PC ratio 1:7560, 41 without TM) is 50 μm min^−1. Also, in the data set with human blood plasma (PDMS, 25 ° C., TM:Egg PC ratio 1:75600 (lipid:TM=7.6×10^4), 20 without TM), the “Front Velocity (Fv)” value is given as 24 μm min^−1. The aPC production in data set [3] (Glass, 37 ° C., TM:Egg PC ratio 1:7560) is 10 pmol min^−1 m^−2; in data set [3] (Glass, 37 ° C., TM:Egg PC ratio 1:75600) it was 0.3 pmol min^−1 m^−2; in data set [3] (PDMS, 25 ° C., TM:Egg PC ratio 1:7560) it was 5* pmol min^−1 m^−2; in data set [3] (PDMS, 25 ° C., TM:Egg PC ratio 1:75600) it was 10 pmol min^−1 m^−2.

B1: tissue factor (protein, UniProt P13726 33-295, looked up)
Tissue factor: SGTTNTVAAYNLTWKSTNFKTILEWEPKPVNQVYTVQISTKSGDWKSKCFYTTDTECDLTDEIVKDVKQTYLARVFSYPAGNVESTGSAGEPLYENSPEFTPYLETNLGQPTIQSFEQVGTKVNVTVEDERTLVRRNNTFLSLRDVFGKDLIYTLYYWKSSSSGKKTAKTNTNEFLIDVDKGENYCFSVQAVIPSRTVNRKSTDSPVECMGQEKGEFREIFYIIGAVVFVVIILVIILAISLHKCRKAGVGQSWKENSPLNVS
modifications: in phospholipid bilayers
notes: human recombinant tissue factor reconstituted in phospholipid bilayers, clotting stimulus
On to B1, for which the “threshold patch size, ptr” value in data set [4] ([TF]=0.16 nM in vesicles) is 160±32 μm; in data set [4] ([TF]=0.40 nM in vesicles), 75±25 μm. Besides, the “timescale of reaction, tR” value amounted to 206 s in data set [4] ([TF]=0.16 nM in vesicles) and 30 s in data set [4] ([TF]=0.40 nM in vesicles).
